Data from ChEMBL document CHEMBL3046473, “Effect on Insecticidal Activity of Substituents at the 1,4-Benzodioxanyl Moiety of Haedoxan” (1992).

Experiments:
Musca domestica [1] = assay: Insecticidal activity against 3-day old Musca domestica (house fly) administered topically measured after 24 hr; type: functional
Musca domestica [2] = assay: Insecticidal activity against 3-day old Musca domestica (house fly) administered topically measured after 24 hr relative to (+)-haedoxan A; type: functional

Row | SMILES | LD50 (Musca domestica [1]) [µg] | Ratio (Musca domestica [2])
1 | COc1cc2c(cc1[C@H]1OC[C@]3(O)[C@@H](Oc4c(OC)cccc4OC)OC[C@H]13)OCCO2 | >10 | –
2 | COc1cc2c(cc1[C@H]1OC[C@]3(O)[C@@H](Oc4c(OC)cccc4OC)OC[C@H]13)OC(CCl)CO2 (mixture of isomers) | 5 | 5e-05
3 | COc1cc2c(cc1[C@H]1OC[C@]3(O)[C@@H](Oc4c(OC)cccc4OC)OC[C@H]13)OC(COC(C)(C)C)CO2 (mixture of isomers) | 1 | 0.0003
4 | COc1cc2c(cc1[C@H]1OC[C@]3(O)[C@@H](Oc4c(OC)cccc4OC)OC[C@H]13)OCC(c1ccc3c(c1)OCO3)O2 (mixture of isomers) | 1 | 0.0003
5 | COCC1COc2cc(OC)c([C@H]3OC[C@]4(O)[C@@H](Oc5c(OC)cccc5OC)OC[C@H]34)cc2O1 (mixture of isomers) | 1 | 0.0003
6 | COc1cc2c(cc1[C@H]1OC[C@]3(O)[C@@H](Oc4c(OC)cccc4OC)OC[C@H]13)OC(CO)CO2 (mixture of isomers) | >10 | –
7 | COc1cc2c(cc1[C@H]1OC[C@]3(O)[C@@H](Oc4c(OC)cccc4OC)OC[C@H]13)OC(COCc1ccccc1)CO2 (mixture of isomers) | >10 | –
8 | COC[C@H]1Oc2cc([C@H]3OC[C@]4(O)[C@@H](Oc5c(OC)cc6c(c5OC)OCO6)OC[C@H]34)c(OC)cc2O[C@@H]1c1ccc2c(c1)OCO2 [(+)-HAEDOXAN A] | 0.00025 | –
